Reference: PubChem BioAssay (NCI)
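Grown in 96-well plates, cells were treated for 48 hours with each compound at five concentrations. Insufficient inhibition: endpoint recorded as highest concentration tested. GI50 is the concentration that inhibits growth by half. TGI is the concentration that stops growth completely.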

Legend:
Test in all cases: DTP human tumour cell line panel, 48 h
[1] = system: NCI-H23 lung
[2] = system: HCC-2998 colon
[3] = system: SNB-78 CNS
[4] = system: SN12C renal
[5] = system: MOLT-4 leukemia
[6] = system: HOP-62 NSCLC
[7] = system: UACC-257 melanoma
[8] = system: DMS 273 small cell lung
[9] = system: MCF7 breast
[10] = system: MDA-MB-231 breast
[11] = system: T-47D breast

| Structure (SMILES) | TGI [1] [µM] | TGI [2] [µM] | TGI [3] [µM] | TGI [4] [µM] | TGI [5] [µM] | TGI [6] [µM] | TGI [7] [µM] | TGI [8] [µM] | TGI [9] [µM] | TGI [10] [µM] | TGI [11] [µM] | GI50 [10] [µM] |
| --- | --- | --- | --- | --- | --- | --- | --- | --- | --- | --- | --- | --- |
| c1ccc(OCCSCCCCCCCCCCSCCOc2ccccc2)cc1 | > 100 | > 100 | > 100 | > 100 | > 100 | > 100 | > 100 | – | – | – | – | – |
| Cc1cc(=O)[nH]c(NNC(C#N)c2ccc([N+](=O)[O-])cc2)n1 (stereo unspecified) | > 100 | – | > 100 | > 100 | > 100 | > 100 | > 100 | > 100 | – | – | – | – |
| Nc1c(N=Nc2ccc(-c3ccc(N=Nc4c(O)ccc5cc(S(=O)(=O)O)cc(S(=O)(=O)O)c45)cc3)cc2)c(S(=O)(=O)O)cc2cc(S(=O)(=O)O)c(N=Nc3ccccc3)c(O)c12 | > 100 | > 100 | > 100 | > 100 | > 100 | > 100 | > 100 | > 100 | > 100 | – | – | – |
| COc1cccc(CN(C(=O)/C=C\Sc2ccccc2)C(C)(C)C)c1 | > 100 | > 100 | – | > 100 | > 100 | > 100 | > 100 | – | > 100 | > 100 | > 100 | – |
| CC(=O)Nc1ccc(C(=O)N2N=C(C)/C(=C/c3ccc(O)cc3)C2=O)cc1 | > 100 | > 100 | > 100 | > 100 | > 100 | > 100 | > 100 | > 100 | – | – | – | – |
| OC12CCCCCC1(N1CCOCC1)c1ccccc12 (stereo unspecified) | > 100 | > 100 | > 100 | > 100 | > 100 | > 100 | > 100 | > 100 | – | – | – | – |
| CC(=O)NC1=C(NCC(C)C)C(=O)c2ccccc2C1=O | 59.7 | > 100 | 89.1 | 31.2 | > 100 | > 100 | 36.4 | 30.7 | – | – | – | – |
| O=[N+]([O-])/C=C/c1cn(CCCCCn2cc(/C=C/[N+](=O)[O-])c3ccccc32)c2ccccc12 | 16 | 2.8 | – | > 21.5 | > 20.4 | 10.6 | 13.8 | – | 1.62 | 4.28 | > 100 | – |
| NC(=O)C1=CC2C3C=CC2(O)C(=O)OC3O1 (stereo unspecified) | 9.47 | 26.7 | – | 20 | 8.78 | 29.9 | 7.44 | – | 18.5 | 32 | 15.1 | – |
| COC(=O)c1c(OC)cc2cc3c(c(O)c2c1C)C(=O)C1(O)C(=O)C=C(OC)C(OC(=O)CC(C)N)=C1C3=O (stereo unspecified) | > 100 | 87.9 | – | > 100 | 76.3 | > 100 | > 100 | – | 67.3 | 43.4 | > 100 | – |
| O=C1CSc2nnc(CCCCCCCCc3nnc4n3NC(=O)CS4)n2N1 | > 100 | > 100 | – | > 100 | > 100 | > 100 | > 100 | – | > 100 | > 100 | > 100 | – |
| COC(=O)n1c(C[P+](c2ccccc2)(c2ccccc2)c2ccccc2)cc2ccccc21 | 7.77 | 10.3 | 17.9 | 11.7 | 17.8 | 4.57 | – | 6.25 | – | – | – | – |
| Cc1ccc(/C=C2\CN(C)CC3C2=NC(=S)NC3c2ccc(C)cc2)cc1 (stereo unspecified) | > 100 | 33.4 | – | > 100 | 56 | > 100 | > 100 | – | > 100 | > 100 | 96.9 | – |
| CCN(CC)CCCCC1CCN(CC(=O)N2c3ccccc3NC(=O)CC2C)CC1 (stereo unspecified) | > 100 | > 100 | > 100 | > 100 | > 100 | > 100 | > 100 | > 100 | – | – | – | – |
| C/C(=C\Cc1cc(O)ccc1O)CCc1c(C)cc(O)c(C=O)c1C | 70.8 | > 100 | – | 92.4 | > 100 | – | – | 55.4 | – | – | – | – |
| O=c1c2c(nc3n1CCC3)sc1c(O)c(Br)ccc12 | 92.7 | 38 | > 100 | 43.1 | 55.1 | 45.3 | 30.7 | 31 | – | – | – | – |
| CCN(CC)CCN(C)CCc1ccc(Br)cc1 | > 100 | > 100 | – | > 100 | > 100 | > 100 | > 100 | – | > 100 | > 100 | > 100 | – |

| Structure (SMILES) | TGI [1] [µM] | TGI [2] [µM] | TGI [3] [µM] | TGI [4] [µM] | TGI [5] [µM] | TGI [6] [µM] | TGI [7] [µM] | TGI [8] [µM] | TGI [9] [µM] | TGI [10] [µM] | TGI [11] [µM] | GI50 [10] [µM] |
| --- | --- | --- | --- | --- | --- | --- | --- | --- | --- | --- | --- | --- |
| CNc1ccc(S(=O)Nc2ccccc2)cc1 (stereo unspecified) | > 100 | > 100 | – | > 100 | > 100 | > 100 | > 100 | – | > 100 | > 100 | 49.5 | – |
| COC(=O)CC(NC(=O)OCc1ccccc1)C(C(=O)OCc1ccccc1)C1(C)OCCO1 (stereo unspecified) | > 100 | > 100 | – | > 100 | 57.3 | > 100 | > 100 | > 100 | – | – | – | – |
| CC1=C2NCN(C)N=C2C(C#N)(C#N)C1(C#N)C#N | 21.4 | 44.4 | – | 34.9 | 9.87 | > 100 | 33.9 | – | > 70.7 | 36.2 | 59 | – |
| CCCNC(=O)CCC(C)[C@H]1CCC2C3C(C[C@H](OC(C)=O)[C@@]21C)[C@@]1(C)CCC2(C[C@H]1C[C@H]3OC(C)=O)OOC1(CCCCC1)OO2 (stereo partly specified) | 3.54 | > 43.3 | – | 16 | 5.14 | 1.34 | > 100 | – | > 56.1 | 5.31 | 6.44 | – |
| CC(=O)O[C@H]1C(=O)N(c2cc3c4ccccc4ccc3c3ccccc23)[C@@H]1c1ccccc1 | 37.3 | 26.8 | – | 26.7 | > 100 | 32.9 | > 100 | – | > 100 | 48.2 | 98.6 | – |
| Cn1c(=O)sc2cc(C(=S)N3CCOCC3)ccc21 | > 100 | > 100 | – | > 100 | > 100 | > 100 | > 100 | – | > 100 | > 100 | > 100 | – |
| CC1(C)COC(c2c(-c3ccccc3)noc2CS(=O)c2ccccc2)=N1 (stereo unspecified) | > 100 | > 100 | > 100 | > 100 | > 100 | > 100 | > 100 | > 100 | – | – | – | – |
| CCCCCCOP(=O)(OCCCCCC)OC(C(=O)OC)C(F)(F)F (stereo unspecified) | > 100 | > 100 | – | > 100 | > 100 | > 100 | > 100 | – | > 100 | > 100 | > 100 | – |
| COc1ccc(-c2c3ccccc3c(-c3ccc(OCCCCCBr)cc3)c3ccccc23)cc1 | – | > 100 | – | > 100 | > 100 | > 100 | – | > 100 | – | – | – | – |
| CC(C)=CCC[C@@H](C)c1c2[nH]c3ccccc3sc-2c(C)c(=O)c1=O | 41.9 | > 36.8 | – | 67.2 | > 75 | 24.9 | > 75 | – | > 75 | > 75 | 23.1 | – |
| O=C(CSc1nc2ccc(I)cc2c(=O)n1Cc1ccccc1)NN1C(=O)CCC1=O | 66.6 | > 100 | – | > 100 | > 100 | > 100 | > 100 | – | > 100 | > 100 | > 100 | – |
| O=C(/C=C/c1ccco1)c1cccc(C(=O)/C=C/c2ccco2)n1 | 31.8 | > 100 | – | 32 | 6.25 | > 88.6 | > 100 | – | > 100 | > 100 | > 100 | – |
| Cc1cc2occ(-c3ccc(Cl)cc3)c2c(=O)o1 | > 100 | – | > 100 | > 100 | > 100 | > 100 | > 100 | > 100 | – | – | – | – |
| CC(C)(C)CC(C)(C)c1ccc(OCCOCC[N+](C)(C)Cc2ccccc2)cc1 | 6.01 | 4.05 | 4.26 | 12.7 | 6.05 | 33.5 | 3.03 | 2.57 | – | 2.82 | – | 1.34 |
| COc1ccc(-c2nc(-c3cnccn3)n(C3OC(CO)C(O)C(O)C3O)n2)cc1 (stereo unspecified) | > 100 | > 100 | – | > 100 | > 100 | > 100 | > 100 | – | > 100 | > 100 | > 100 | – |
| CCOC1=C2NC(Cc3ccc(F)cc3)=NC2C(=O)c2ccccc21 (stereo unspecified) | 53.4 | > 100 | > 100 | – | 46.7 | > 100 | 50.8 | 81.3 | – | – | – | – |
| CCCCCCCCCCCCCCCCOCC(Cl)COP(=O)(O)OP(=O)(O)OCC1OC(n2cnc3c(N)ncnc32)C(O)C1O (stereo unspecified) | > 100 | > 100 | – | > 100 | > 100 | > 100 | > 100 | – | > 100 | > 100 | > 100 | – |
